Laboratory results as given in article PMC12590273, “Systematic design of DMBT1-derived peptides correlating physicochemical properties and sequence motifs with siRNA delivery and efficacy in cancer therapy” (eBioMedicine, 2025).
Non-standard residues stand in square brackets, D forms with d. Residues, ends and D or L forms follow the SMILES beside them.

Columns and labels:
[1] = system: siRNA (Stealth RNAi Negative Control siRNA); assay: Electrophoretic mobility shift assay (EMSA), peptide-siRNA binding/encapsulation; conditions: peptides 10–100 μM mixed with siRNA at 1:10–1:100 molar ratios in RNase-free water, 30 min 37 °C or 1 h 50 °C; 4% agarose gel, MOPS pH 7.5, GelRed
Protocol: Peptides (10–100 μM) were mixed with siRNA at 1:10–1:100 molar ratios in RNase-free water and incubated 30 min at 37 °C (or 1 h at 50 °C for low-binding peptides). Complexes, supplemented with 5% glycerol, were run on 4% agarose gels in MOPS buffer (pH 7.5) at 70 V for 30 min, stained with GelRed, and imaged under UV. FastRuler UltraLow served as the size marker.

GAPDH in A375 cells = assay: GAPDH silencing by DCPP/GAPDH-siRNA complexes (KDalert kit); assay type: cell-based, human; conditions: 2.5% FBS, 48 h, three biological replicates
Protocol: GAPDH silencing: DCPP/GAPDH-siRNA complexes were prepared as above, diluted in OptiMEM, and added (50 μL) to 96-well plates. A375 and MCF7 cells (2 × 10^3 cells/well) in 50 μL OptiMEM + 5% FBS + 1% P/S were plated onto the complexes (final 100 μL, 2.5% FBS). After 48 h, GAPDH knock-down was measured with the KDalert™ kit.

A375 and MCF7 cells = assay: Cell internalisation of DCPP/Alexa Fluor 555 siRNA complexes (statements not split by cell line); assay type: cell-based; conditions: Alexa Fluor 555 siRNA 25–100 nM, 24 h, fluorescence normalised to crystal violet; cell line not stated
Protocol: A375 (RRID: CVCL_0132) and MCF7 cells (RRID: CVCL_0031) were obtained from ATCC. MEL-STV cells (here called MelST, RRID: CVCL_9U71) are immortalised human melanocytes generated by introducing SV40 large T antigen and hTERT. They are non-tumorigenic and were kindly provided by Dr. Robert Allan Weinberg (Whitehead Institute, MIT). All cell lines were cultured in DMEM + GlutaMax™ with 5% FBS at 37 °C/5% CO2. Working solutions of Alexa Fluor 555 siRNA were prepared in UltraPure DNase/RNase-Free Distilled Water at concentrations of 100–400 nM, and peptide solutions were prepared to achieve the desired peptide–siRNA binding molar ratios, selected based on the siRNA binding efficiency of each peptide. siRNA was mixed with its respective peptide solution and incubated for 30 min at 37 °C or 1 h at 50 °C, depending on the peptide. After incubation, the complexes were diluted in OptiMEM and added to the wells at 50 μL per well, with final siRNA concentrations ranging from 25 to 100 nM. […] OptiMEM without phenol red was added, and fluorescence was measured using Alexa Fluor 555 (excitation/emission: 553/568 nm, reading: 535/595 nm). Cells were subsequently stained with crystal violet and resuspended in citrate buffer, and absorbance was measured. Crystal violet absorbance was used to normalise the fluorescence signal, accounting for cell density or viability differences.

## CC(=O)N[C@@H](CCCCN)C(=O)N1CCC[C@H]1C(=O)N[C@@H](CO)C(=O)N[C@@H](CO)C(=O)N1CCC[C@H]1C(=O)N1CCC[C@H]1C(=O)N[C@@H](CCC(=O)O)C(=O)N[C@@H](CCC(=O)O)C(=O)NCC(=O)N[C@H](CCCNC(=N)N)C(=O)N[C@H](C(=O)N[C@@H](CCC(=O)O)C(=O)N[C@H](C(=O)N[C@@H](CC(C)C)C(=O)N[C@@H](Cc1c[nH]cn1)C(=O)N[C@@H](Cc1c[nH]cn1)C(=O)N[C@@H](Cc1c[nH]cn1)C(=O)N[C@@H](Cc1c[nH]cn1)C(=O)N[C@H](Cc1c[nH]c2ccccc12)C(=O)N[C@@H](CCCNC(=N)N)C(=O)N[C@@H](CCCNC(=N)N)C(=O)N[C@@H](CCCNC(=N)N)C(=O)N[C@@H](CCCNC(=N)N)C(=O)N[C@H](Cc1c[nH]c2ccccc12)C(N)=O)C(C)C)C(C)C [A6DH, Ac-KPSSPPEEGrVEVLHHHHwRRRRw-NH2] (Ac-KPSSPPEEG[dR]VEVLHHHH[dW]RRRR[dW]-NH2)
[1]
  siRNA binding / encapsulation (peptide-siRNA binding molar ratio by EMSA): no detectable siRNA binding

## Ac-GRVEVLRRRRWKPSSPPEEHH-NH2 [D4RA6H, CD44-targeting DMBT1-derived peptide containing the A6 motif]
[1]
  siRNA binding / encapsulation (peptide-siRNA binding molar ratio by EMSA): no detectable siRNA binding

## SREPRGD
GAPDH in A375 cells
  GAPDH silencing in A375 cells: significant gene silencing
A375 and MCF7 cells
  shape of dose–response curve of cell interaction: sigmoid curve with a plateau
[1]
  siRNA binding / encapsulation (peptide-siRNA binding molar ratio by EMSA): efficiently bound siRNA

## SREPRGDK
[1]
  siRNA binding / encapsulation (peptide-siRNA binding molar ratio by EMSA): efficiently bound siRNA
